Assay results reported in PubChem BioAssay AID1963985 (Molecular Pharmacology Branch, DTP, NCI, 2024).

System: 252836-082-R-J2-PDC tumor spheroids, viability
Test: Anticancer human tumor 252836-082-R-J2-PDC patient-derived head and neck squamous cell carcinoma cell line growth inhibition [PI3K]
Conditions: spheroids with HUVEC and MSC; for IC50: curve of first compound; for viability, T/C: stronger effect = lower value
Outline: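 Tumor cells grown as multi-cell spheroids with HUVEC endothelial cells and MSC fibroblast-like stroma were treated with targeted agents combined with inavolisib, alpelisib, duvelisib or copanlisib. Doses fell in half-log steps from near clinical Cmax, else from 10 microM. Viability was measured.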

[1] = second compound 0.0316 µM, first compound 0.0316 µM
[2] = second compound 0.0316 µM, first compound 0.1 µM
[3] = second compound 0.1 µM, first compound 0.0316 µM
[4] = second compound 0.1 µM, first compound 0.1 µM
[5] = second compound 0.316 µM, first compound 0.0316 µM
[6] = second compound 0.316 µM, first compound 0.1 µM
[7] = second compound 1 µM, first compound 0.0316 µM
[8] = second compound 1 µM, first compound 0.1 µM
[9] = second compound 3.16 µM, first compound 0.0316 µM
[10] = second compound 3.16 µM, first compound 0.1 µM
[11] = second compound 10 µM, first compound 0.0316 µM
[12] = second compound 10 µM, first compound 0.1 µM
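Note: spheroids exposed to agents for seven days before readout.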
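Throughout, for viability, T/C: percent of vehicle DMSO control viability so 100% = untreated growth.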

CC(C)NCC(C(=O)N1CCN(c2ncnc3c2C(C)CC3O)CC1)c1ccc(Cl)cc1 (centres undefined) + CC(Nc1ncnc2nc[nH]c12)c1cc2cccc(Cl)c2c(=O)n1-c1ccccc1
IC50 (second compound 0.0316 µM): 1150 nM
IC50 (second compound 0.1 µM): 1100 nM
IC50 (second compound 0.316 µM): 991 nM
IC50 (second compound 1 µM): 980 nM
IC50 (second compound 3.16 µM): 916 nM
IC50 (second compound 10 µM): 742 nM
viability, T/C [1]: 99.4%
viability, T/C [2]: 89.4%
viability, T/C (second compound 0.0316 µM, first compound 0.316 µM): 76.7%
viability, T/C (second compound 0.0316 µM, first compound 1 µM): 54.5%
viability, T/C (second compound 0.0316 µM, first compound 3.16 µM): 28.6%
viability, T/C (second compound 0.0316 µM, first compound 10 µM): 22.1%
viability, T/C [3]: 97.9%
viability, T/C [4]: 81.1%
viability, T/C (second compound 0.1 µM, first compound 0.316 µM): 77.4%
viability, T/C (second compound 0.1 µM, first compound 1 µM): 49%
viability, T/C (second compound 0.1 µM, first compound 3.16 µM): 33.2%
viability, T/C (second compound 0.1 µM, first compound 10 µM): 21.7%
viability, T/C [5]: 83.3%
viability, T/C [6]: 83.1%
viability, T/C (second compound 0.316 µM, first compound 0.316 µM): 85%
viability, T/C (second compound 0.316 µM, first compound 1 µM): 48.3%
viability, T/C (second compound 0.316 µM, first compound 3.16 µM): 38.1%
viability, T/C (second compound 0.316 µM, first compound 10 µM): 20.7%
viability, T/C [7]: 95.4%
viability, T/C [8]: 98.1%
viability, T/C (second compound 1 µM, first compound 0.316 µM): 65.3%
viability, T/C (second compound 1 µM, first compound 1 µM): 51.5%
viability, T/C (second compound 1 µM, first compound 3.16 µM): 33.6%
viability, T/C (second compound 1 µM, first compound 10 µM): 20.5%
viability, T/C [9]: 75.7%
viability, T/C [10]: 74.9%
viability, T/C (second compound 3.16 µM, first compound 0.316 µM): 75%
viability, T/C (second compound 3.16 µM, first compound 1 µM): 46.5%
viability, T/C (second compound 3.16 µM, first compound 3.16 µM): 35.4%
viability, T/C (second compound 3.16 µM, first compound 10 µM): 24.2%
viability, T/C [11]: 71.3%
viability, T/C [12]: 69.2%
viability, T/C (second compound 10 µM, first compound 0.316 µM): 59.6%
viability, T/C (second compound 10 µM, first compound 1 µM): 46.3%
viability, T/C (second compound 10 µM, first compound 3.16 µM): 30.4%
viability, T/C (second compound 10 µM, first compound 10 µM): 16.6%

Cn1ncnc1[C@H]1c2n[nH]c(=O)c3cc(F)cc(c23)N[C@@H]1c1ccc(F)cc1 + CC(Nc1ncnc2nc[nH]c12)c1cc2cccc(Cl)c2c(=O)n1-c1ccccc1
IC50 (second compound 0.0316 µM): > 100 nM
IC50 (second compound 0.1 µM): > 100 nM
IC50 (second compound 0.316 µM): > 100 nM
IC50 (second compound 1 µM): > 100 nM
IC50 (second compound 3.16 µM): 90.3 nM
IC50 (second compound 10 µM): 23.1 nM
viability, T/C (second compound 0.0316 µM, first compound 0.000316 µM): 95.5%
viability, T/C (second compound 0.0316 µM, first compound 0.001 µM): 79.7%
viability, T/C (second compound 0.0316 µM, first compound 0.00316 µM): 94%
viability, T/C (second compound 0.0316 µM, first compound 0.01 µM): 94.4%
viability, T/C [1]: 79.6%
viability, T/C [2]: 58.8%
viability, T/C (second compound 0.1 µM, first compound 0.000316 µM): 94.3%
viability, T/C (second compound 0.1 µM, first compound 0.001 µM): 82.6%
viability, T/C (second compound 0.1 µM, first compound 0.00316 µM): 79.3%
viability, T/C (second compound 0.1 µM, first compound 0.01 µM): 87.6%
viability, T/C [3]: 79.1%
viability, T/C [4]: 51.9%
viability, T/C (second compound 0.316 µM, first compound 0.000316 µM): 97.5%
viability, T/C (second compound 0.316 µM, first compound 0.001 µM): 84%
viability, T/C (second compound 0.316 µM, first compound 0.00316 µM): 79.5%
viability, T/C (second compound 0.316 µM, first compound 0.01 µM): 80%
viability, T/C [5]: 76.9%
viability, T/C [6]: 57.8%
viability, T/C (second compound 1 µM, first compound 0.000316 µM): 84.8%
viability, T/C (second compound 1 µM, first compound 0.001 µM): 97.9%
viability, T/C (second compound 1 µM, first compound 0.00316 µM): 77.4%
viability, T/C (second compound 1 µM, first compound 0.01 µM): 81.5%
viability, T/C [7]: 68.3%
viability, T/C [8]: 57.9%
viability, T/C (second compound 3.16 µM, first compound 0.000316 µM): 71.5%
viability, T/C (second compound 3.16 µM, first compound 0.001 µM): 85.4%
viability, T/C (second compound 3.16 µM, first compound 0.00316 µM): 82.8%
viability, T/C (second compound 3.16 µM, first compound 0.01 µM): 64.3%
viability, T/C [9]: 64.7%
viability, T/C [10]: 48.2%
viability, T/C (second compound 10 µM, first compound 0.000316 µM): 55.1%
viability, T/C (second compound 10 µM, first compound 0.001 µM): 59.4%
viability, T/C (second compound 10 µM, first compound 0.00316 µM): 58.8%
viability, T/C (second compound 10 µM, first compound 0.01 µM): 63.4%
viability, T/C [11]: 46.5%
viability, T/C [12]: 31.2%
